Data published in paper PMC11585513, “A novel ACE inhibitory peptide from Pelodiscus sinensis Wiegmann meat water-soluble protein hydrolysate” (Amino Acids, 2024).
Read-outs that look alike come from different tables or passages of the source. Peptide text beside a SMILES is read from it.

Key:
[1] = test system: ACE; conditions: cited from earlier work
Procedure: The kinetics of IEWEF inhibition of ACE were determined by Lineweaver–Burk plot (Fig. 1). […] We speculate that IEWEF interacts with the non-active domain of ACE to form an enzyme-inhibitor complex even in the presence of substrate (Xie et al. [2022]). A number of non-competitive ACE inhibitory peptides have been reported in recent years, including GVSLPEW, GYGGVSLPEW, and VGINYW from α-lactalbumin (W ...

[2] = molecular target: T1, ACE (Oryctolagus cuniculus, UniProt P12822); assay: In vitro assay of ACE inhibitory activity (HHL substrate, HPLC of hippuric acid); format: biochemical, rabbit; conditions: for inhibition at 86.57 µM: 86.57 μmol/L; for inhibition at 86.57 µM / inhibition at 173.13 µM / inhibition at 346.26 µM / inhibition at 692.52 µM / inhibition at 2770.08 µM: read-out: ACE inhibitory activities (%); for inhibition at 173.13 µM: 173.13 μmol/L; for inhibition at 346.26 µM: 346.26 μmol/L; for inhibition at 692.52 µM: 692.52 μmol/L; for inhibition at 2770.08 µM: 2770.08 μmol/L
T1 construct: ACE (1U, derived from rabbit lung, CAS 207386-83-2); purchased Sigma-Aldrich Co. (St. Louis, MO, USA); host or cells: rabbit lung
T1 sequence (P12822 34-1310): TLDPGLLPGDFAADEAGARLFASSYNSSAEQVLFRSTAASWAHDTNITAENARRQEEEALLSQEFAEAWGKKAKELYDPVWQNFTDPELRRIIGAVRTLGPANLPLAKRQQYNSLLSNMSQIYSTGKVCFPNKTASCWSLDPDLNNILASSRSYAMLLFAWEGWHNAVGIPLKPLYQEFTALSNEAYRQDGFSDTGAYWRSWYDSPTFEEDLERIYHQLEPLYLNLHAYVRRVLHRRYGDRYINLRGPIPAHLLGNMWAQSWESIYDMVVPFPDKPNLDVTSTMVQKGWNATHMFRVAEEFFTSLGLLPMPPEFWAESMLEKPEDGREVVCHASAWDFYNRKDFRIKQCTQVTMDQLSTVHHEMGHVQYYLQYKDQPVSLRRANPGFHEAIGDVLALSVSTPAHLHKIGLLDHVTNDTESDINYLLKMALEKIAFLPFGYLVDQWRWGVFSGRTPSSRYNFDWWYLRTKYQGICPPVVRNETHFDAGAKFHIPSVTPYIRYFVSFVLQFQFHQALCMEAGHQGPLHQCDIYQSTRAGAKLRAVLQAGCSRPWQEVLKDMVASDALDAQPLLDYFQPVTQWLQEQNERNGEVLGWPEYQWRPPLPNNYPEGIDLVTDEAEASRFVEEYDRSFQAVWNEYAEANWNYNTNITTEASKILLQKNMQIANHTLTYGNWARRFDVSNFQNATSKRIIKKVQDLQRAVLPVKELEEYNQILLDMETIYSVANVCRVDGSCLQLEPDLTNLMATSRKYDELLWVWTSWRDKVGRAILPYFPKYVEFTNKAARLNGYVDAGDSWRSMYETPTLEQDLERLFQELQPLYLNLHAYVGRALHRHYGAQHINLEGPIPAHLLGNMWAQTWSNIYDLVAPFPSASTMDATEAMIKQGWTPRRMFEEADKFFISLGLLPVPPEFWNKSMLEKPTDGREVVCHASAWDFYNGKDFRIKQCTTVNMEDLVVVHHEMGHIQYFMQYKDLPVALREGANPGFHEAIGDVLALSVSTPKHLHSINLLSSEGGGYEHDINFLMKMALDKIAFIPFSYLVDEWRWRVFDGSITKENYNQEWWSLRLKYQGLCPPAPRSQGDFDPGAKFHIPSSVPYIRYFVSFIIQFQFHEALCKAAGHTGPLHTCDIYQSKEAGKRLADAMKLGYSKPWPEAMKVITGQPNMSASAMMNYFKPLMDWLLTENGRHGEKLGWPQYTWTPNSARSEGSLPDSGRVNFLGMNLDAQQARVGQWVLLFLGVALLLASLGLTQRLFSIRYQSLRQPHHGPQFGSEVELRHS
Procedure: WSPM prepared in our previous work (Sun et al. [2022]) and stored at − 20 °C after freeze-drying was used for this study. ACE (1U, derived from rabbit lung, CAS […]), Hippuryl-L-histidyl-L-leucine (HHL, CAS […]), and hippuric acid (HA, CAS 495-69-2) were obtained from Sigma-Aldrich Co. (St. Louis, MO, USA). The reagents used for HPLC analysis were all HPLC grade, and all other reagents used were analytical grade. The amounts of each protein were quantified using the BCA Protein Assay Kit (Bio-Rad, USA). All the protein samples were packed separately and stored at − 80 °C.
In vitro assay of ACE inhibitory activities of the selected peptides ACE inhibitory activity was evaluated in vitro according to previous methods with some modifications (Liao et al. [2018]; Xie et al. [2022]). All of the assays were carried out in 0.1 mol/L sodium borate buffer (containing 0.3 mol/L NaCl at pH 8.3). For each peptide of interest, 40 µL ACE solution (100 mU/mL) was pre-incubated with the peptide (60 µL) at 37 °C for 10 min. Next, 40 µL HHL solution (5.40 mmol/L) was added to the solution at 37 °C, and the reaction was allowed to proceed for 15 min at 37 °C. Finally, 60 µL 1 mol/L HCl was added to terminate the reaction. A borate buffer only control processed using the above procedure was also included for use as a blank. To quantify the amount of HA (hippuric acid) generated, 20 µL of reaction solution (pre-filtered using a 0.45 µm microporous membrane) was analyzed by HPLC (Waters e2695, Milford, USA) on a C18 column (150 × 4.6 mm, 5 µm; ThermoFisher Scientific, USA). The run conditions were as follows: mobile phase, methanol/water/phosphoric acid solution (15:84.9:0.1, V/V/V); flow rate, 1.0 mL/min; UV detection wavelength, 228 nm. All experiments were conducted in triplicate. ACE inhibitory activity was calculated according to the following equation:1 ACE inhibitory activity\%=B-A/B×100\% where A represents the peak area of HA in the sample, and B represents the peak area of HA in the blank.

[3] = test system: ACE; conditions: at 0.5 mg/mL; ref Girgih et al. [2014]; cited from earlier work
Procedure: This is within the range (0.3 ~ 1000.0 µM) known to reduce blood pressure (Chen et al. [2022]). There are several reported ACE inhibitory peptides similar to IEWEF in their amino acid compositions, including IE, EW, IEW, EF, LEF and IEEAF. The peptides IE and EW are both ACE inhibitory peptides isolated from milk hydrolysates, although their IC50 values have not been reported thus far (van Platerink et al. [2008]).

[4] = from α-lactalbumin, ref Wei et al. [2022]
[5] = from Carapax Trionycis, ref Liao et al. [2018]

For GVSLPEW, the Inhibition mode [1, 4] is given as “non-competitive”.

In the case of VGINYW, the Inhibition mode [1, 4] is listed as “non-competitive”.

With `CC[C@H](C)[C@H](N)C(=O)N[C@@H](CCC(=O)O)C(=O)N[C@@H](Cc1c[nH]c2ccccc12)C(=O)N[C@@H](CCC(=O)O)C(=O)N[C@@H](Cc1ccccc1)C(=O)O` [IEWEF, Ile-Glu-Trp-Glu-Phe] (H-IEWEF-OH) the inhibition at 86.57 µM ([2]; replicate 1) was 58.4%, the inhibition at 86.57 µM ([2]; replicate 2) was 57.8% and the inhibition at 86.57 µM ([2]; replicate 3) was 57.9%. For the same compound, the inhibition at 173.13 µM ([2]; replicate 1) was 65.3%, the inhibition at 173.13 µM ([2]; replicate 2) was 59.3% and the inhibition at 173.13 µM ([2]; replicate 3) was 65%. The inhibition at 346.26 µM ([2]; replicate 1) was 72.2%, the inhibition at 346.26 µM ([2]; replicate 2) was 69.3% and the inhibition at 346.26 µM ([2]; replicate 3) was 70.5%. The inhibition at 692.52 µM ([2]; replicate 1) was 66.8%, the inhibition at 692.52 µM ([2]; replicate 2) was 74.4% and the inhibition at 692.52 µM ([2]; replicate 3) was 74.5%. For the same compound, the inhibition at 2770.08 µM ([2]; replicate 1) was 91.2%, the inhibition at 2770.08 µM ([2]; replicate 2) was 91% and the inhibition at 2770.08 µM ([2]; replicate 3) was 91%. The IC50 ([2]; ACE 100 mU/mL from rabbit lung, HHL 5.40 mmol/L, 0.1 mol/L sodium borate buffer with 0.3 mol/L NaCl pH 8.3, 10 min pre-incubation, 15 min at 37 °C, HPLC-UV 228 nm, mean ± SD, n = 3, read-out: IC50 value against ACE) was 41.3 µM.

For KIGSRSRFEVT, the Inhibition mode ([1]; from the shiitake mushroom, ref Paisansak et al. [2021]) is listed as “non-competitive”.

In the case of GYGGVSLPEW, the Inhibition mode [1, 4] is listed as “non-competitive”.

In the case of IEEAF, the “Inhibitory activity against ACE” value [3] is given as “around 40%”.

In the case of LLYQEPLGPVR, the Inhibition mode ([1]; from casein hydrolysate, ref Liu et al. [2020]) is listed as “non-competitive”.

In the case of KRER, the Inhibition mode [1, 5] is given as “non-competitive”.

For KHMFK, the Inhibition mode [1, 5] is listed as “non-competitive”.

In the case of PPLLFAAL, the Inhibition mode ([1]; from Takifugu flavidus, ref Su et al. [2021]) is given as “non-competitive”.

In the case of WGAP, the Inhibition mode ([1]; from rabbit meat, ref Chen et al. [2021]) is given as “non-competitive”.
